# Laboratory results: ChEMBL document CHEMBL3507680, “University of Dundee, Gates Library screen for HepG2 cell viability”
# Experiment: Human HepG2 cell viability assay in 384 well format
# Type: toxicity, cell-based
# Set-up: dose 125 nL, time 70.5 hour; concentration not given beside the values
# Conditions: HepG2 cells, read-out: Inhibition
row,Structure (SMILES),cytotoxicity at 70.5 h
1,COc1ccc(C2CCN(Cc3cscn3)CC2)cc1,0.308%
2,Cc1ccc(C(C)NC(=O)CCc2cnn(C)c2)cc1F (stereo not given),-8.21%
3,CNC(=O)N(C)CC1(c2ccc(Br)cc2)CC1,-3.73%
4,CN(Cc1ccco1)C(=O)C1CCCc2ccccc21 (stereo not given),-3.68%
5,CCC(c1ccc(F)cc1F)N1CCN(CCO)CC1 (stereo not given),-6.18%
6,CC(CNC(=O)CCc1ccco1)N1CCc2sccc2C1 (stereo not given),3.4%
7,N#CCCN(Cc1ccco1)C(=O)C1CCCc2ccccc21 (stereo not given),-6.61%
8,CCSCc1ccc(C(=O)N2CCCN(CC(N)=O)CC2)cc1,-5.22%
9,Cn1cccc1C(=O)COc1ccc(S(N)(=O)=O)cc1,0.32%
10,Cc1ccc(NC(=O)NCC2CCS(=O)(=O)C2)cc1Cl (stereo not given),0.575%
11,COc1cc(C(C)=O)ccc1OCC(=O)c1cccn1C,32.2%
12,N#CCSCC(=O)NCC1CCCCC1,-7.13%
13,O=C(NCC1CCS(=O)(=O)C1)c1ccco1 (stereo not given),-8.58%
14,NC(=O)CN1CCCN(C(=O)c2ccc(SC(F)F)cc2)CC1,-6.46%
15,NC(=O)CSCC(=O)NCC1CCCC1,-10.8%
16,CC(C)(C)n1ncc(NCC(O)c2ccccc2)c(Cl)c1=O (stereo not given),25.2%
17,CC1CN(C(=O)Nc2cc(C(F)(F)F)c[nH]c2=O)CCO1 (stereo not given),-8.88%
18,CC1(C)CN(C(=O)Nc2cc(C(F)(F)F)c[nH]c2=O)CCO1,-6.62%
19,O=C(NCC1CCS(=O)(=O)C1)c1ccc(NC(=O)c2ccco2)cc1 (stereo not given),26.8%
20,O=c1n(CCNCc2cccc3ccccc23)nc2ccccn12,-12.6%
21,CC(C)(C)n1ncc(NCC(O)c2ccccc2C(F)(F)F)c(Cl)c1=O (stereo not given),23.5%
22,O=c1n(CCNCc2ccc3ccccc3c2)nc2ccccn12,-0.105%

row,Structure (SMILES),cytotoxicity at 70.5 h
1,CC(C)c1noc(CCNC(=O)NCC2COc3ccccc3O2)n1 (stereo not given),-11.6%
2,CCC(C)(C)N(C)CCOc1cccc(S(C)(=O)=O)c1,-3.09%
3,CN(C)C(=O)c1cccc(CCNS(C)(=O)=O)c1,-2.26%
4,O=C(NCc1ccccc1OCCO)Nc1ccc2c(c1)CCC2,0.688%
5,CCn1nc(C)cc1C(=O)OCCNc1ncnc2ccccc12,27.6%
6,CNC(=O)C1CCCCN1C(=O)c1cn(CCOC)c2ccccc12 (stereo not given),0.571%
7,CC(C)N(C)S(=O)(=O)N(C)Cc1cnn(Cc2ccccc2)c1,3.45%
8,COCCn1cc(C(=O)N2CCCC2c2ccncc2)c2ccccc21 (stereo not given),-4.2%
9,CN(C)C(=O)c1cccc(CCNc2ccccc2S(C)(=O)=O)c1,-0.957%
10,COc1c(CNCc2ccccc2Cn2cncn2)c(C)nn1C,-1.28%
11,Cc1ccc(NC2CCN(C(=O)CCCc3ccccn3)CC2)nn1,9.21%
12,CCc1nccn1C1CCCN(C(=O)CCc2nc(C(C)C)no2)C1 (stereo not given),-1.73%
13,Cc1nn(C)c(Cl)c1C1CCCN1C(=O)c1ccc(N(C)C)nn1 (stereo not given),-12.9%
14,N#Cc1ccc(N2CCCN(CCCn3cncn3)CC2)cc1,-0.762%
15,CC(C)(CNC(=O)Nc1nccs1)N1CCOCC1,-6.21%
16,O=C(c1c[nH]c(=O)c(Cl)c1)N1CCc2ccccc2C1,1.04%
17,CCc1ncc(C(=O)NCCNc2ncnc3sccc23)s1,18.2%
18,CC(=O)N(C)CC(=O)NC1(c2ccc(Br)cc2)CC1,4.73%
19,CCN(CC)CC(=O)Nc1ccc(-n2ccc(C(N)=O)n2)cc1,25.3%
20,CC(C)N(C)CC(=O)Nc1ccc(-n2ccc(C(N)=O)n2)cc1,-2.55%
21,Cc1cccc(CS(=O)(=O)c2nnc(N3CCOCC3)s2)c1,0.983%
22,CS(=O)(=O)CCSC1CCN(c2ccccc2F)C1=O (stereo not given),-14.2%

row,Structure (SMILES),cytotoxicity at 70.5 h
1,CC(=O)N(C)CC(=O)NC1(c2ccc(F)cc2)CCCC1,-2.78%
2,O=C(c1cnc(OCC(F)(F)F)c(Cl)c1)N1CCc2ccc(O)cc2C1,-18.4%
3,Cn1cc(C(=O)CC2CCCN2C(=O)c2ccc3[nH]ncc3c2)cn1 (stereo not given),30%
4,Cc1ccc(O)c(C(=O)N2CCCC2CC(=O)c2cnn(C)c2)c1 (stereo not given),-4.97%
5,Cc1cc(CC(=O)NCC(O)c2ccc(OC(F)F)cc2)n[nH]1 (stereo not given),-4.53%
6,CCc1nc(C2CCCN(C(=O)C3=NN(CC)C(=O)CC3)C2)no1 (stereo not given),-13.2%
7,N#Cc1ccc(CN2CCCN(CCCn3cncn3)CC2)cc1,3.01%
8,CC(C)c1n[nH]c(C2CN(Cc3ncc[nH]3)CCO2)n1 (stereo not given),35.2%
9,Cc1ccccc1CN(Cc1ccccn1)C(=O)CN(C)C(C)C,2.63%
10,c1ccc(NCc2cccc(OCCN3CCOCC3)c2)nc1,6.42%
11,COCCC(=O)N(Cc1ccccn1)Cc1ccccc1C,7.25%
12,O=c1[nH]nc(SCC2CCCO2)n1C1CC1 (stereo not given),-6.11%
13,CS(=O)(=O)Nc1cccc(CNC(=O)CCNC(=O)c2cccs2)c1,23.6%
14,COc1cc2c(cc1OC)CN(C(=O)Cn1nc(C)cc1C)CC2,-5.35%
15,O=C(CN1CCS(=O)(=O)CC1)NC1CCCc2ccccc21 (stereo not given),-7.89%
16,N#Cc1cn(CCN2CCc3ccccc3C2)c(=O)[nH]c1=O,0.215%
17,CS(=O)(=O)Nc1cccc(CNC(=O)c2cccs2)c1,19%
18,CCCc1cc(C(=O)NCCN2C(=O)c3ccccc3C2=O)[nH]n1,-8.43%
19,CS(=O)(=O)NC1CCCN(Cc2ccc(OCc3ccccn3)cc2)C1 (stereo not given),-1.69%
20,O=C(NC1CCN(c2cccc(C(F)(F)F)n2)CC1)C1CC1,23.1%
21,CC(C(=O)N1CCN(C(=O)c2ccc(F)cc2)CC1)n1ccnc1 (stereo not given),-4.23%
22,COc1cc2c(cc1OC)CCN(C(=O)Cn1nc(C)cc1C)CC2,2.01%

row,Structure (SMILES),cytotoxicity at 70.5 h
1,O=C1NCC(C(=O)N(Cc2ccc(C(F)(F)F)cc2)C2CC2)N1 (stereo not given),23.5%
2,CS(=O)(=O)NC1CCCN(Cc2ccccn2)C1 (stereo not given),-1.75%
3,O=C1CC[C@H](C(=O)N(Cc2cccc(Br)c2)C2CC2)N1,2.31%
4,CC(C)(C)c1n[nH]c(C2CN(Cc3ncc[nH]3)CCO2)n1 (stereo not given),-0.788%
5,CS(=O)(=O)Cc1ccc(Cl)cc1NCc1cccc(F)c1F,2.24%
6,Cc1nc(-c2ccc(NCCc3ccc(O)cc3)nc2)[nH]c(=O)c1C,3.42%
7,COC(=O)c1ccc(Cn2nc(C)cc2C)c(F)c1,-4.1%
8,COC(=O)c1ccc(Cn2nc(C)cc2C)c(OC)c1,2.29%
9,Cn1c(C2CC2)nc2cc(NC(=O)C3CCOC3)ccc21 (stereo not given),-4.07%
10,COc1cc(OC)cc(N2CCC(NCc3cc[nH]n3)C2)c1 (stereo not given),40.6%
11,Clc1cccc(N2CCC(NCc3cc[nH]n3)C2)c1 (stereo not given),3.22%
12,COCC1CCCN(CCCc2cccc(OC)c2)C1 (stereo not given),37.4%
13,CC(CS(C)(=O)=O)N(C(=O)CCc1ccc(Cl)s1)C1CC1 (stereo not given),-3.37%
14,CCCc1noc(C(C)S(=O)(=O)Cc2nc(C3CC3)no2)n1 (stereo not given),-2.49%
15,CCc1ccc(C(=O)N(CC(F)(F)F)C2CCCOC2)o1 (stereo not given),-6.93%
16,CCC(C)NC(=O)CN1CCOCC1 (stereo not given),-5.48%
17,CCc1noc(CS(=O)(=O)Cc2ccccc2Cl)n1,-6.3%
18,CC(C)(N)CNS(=O)(=O)Cc1cccc2cccnc12,1.51%
19,COc1ccc(C(C)NCc2c[nH]nc2C)cc1Br (stereo not given),-6.07%
